Measurements published in paper PMC9848351, “Discovery of new pyridine-quinoline hybrids as competitive and non-competitive PIM-1 kinase inhibitors with apoptosis induction and caspase 3/7 activation capabilities” (Journal of Enzyme Inhibition and Medicinal Chemistry, 2023).

Legend:
[1] = test system: normal human lung fibroblast Wi-38 cell line; assay: MTT cytotoxicity on normal cells; assay type: cell-based; settings: Wi-38, 72 h, MTT, mean ± SEM; for EC50: Homo sapiens, 50% cell viability; for Wi-38 EC100: safe dose, 100% cell viability
Description: Cytotoxicity of the tested compounds was evaluated using normal human lung fibroblast Wi-38 cell line compared to currently used anticancer drug (doxorubicin) using MTT method was used for assaying cell viability[26] (Supplementary Page S55).
Cytotoxicity test is one of the biological evaluations and screening tests that use human normal and cancer cells in-vitro to observe the effect of the studied compounds on their growth using MTT-based cytotoxicity. Microculture MTT method[26] was used to determine cytotoxic activity of the newly synthesised compounds against normal human lung fibroblast (Wi-38) using doxorubicin (Dox) as standard anticancer drug. The highest IC50 and EC100 values illustrate that the compounds were safe on the proliferation of normal human cells. […]. page 47:
(§1) Cytotoxicity of the tested compounds was evaluated using normal human lung fibroblast Wi-38 cell line compared to currently used anticancer drug (doxorubicin).
Firstly, Wi-38 cell line was subcultured in DMEM medium-contained 10% fetal bovine serum (FBS), then, seeded as 5x10^3 cells per well in 96-well cell culture plate and incubated at 37 °C in 5% CO 2 incubator. Serial concentrations of these compounds and doxorubicin (Dox) were incubat ed with Wi-38 cells for 72 h after 24 h for cell attachment. MTT method was used for assaying cell viability 25. Twenty microliters of 5 mg/ml MTT (Sigma, USA) was added to each well and the plate was incubated at 37 °C for 3 h. Then MTT solution was removed, 100 µl DMSO was used and the absorbance of each well was measured with a microplate reader ( BMG LabTech, Germany) at 570 nm. The effective concentration (IC 50) and safe dose (EC100) values of the tested compounds that cause 50% and 100% cell viability were estimated by the Graphpad Instat software. […]

[2] = test system: liver cancer cell line (HepG-2); assay: MTT anticancer activity, HepG-2; assay type: cell-based, human; settings: Homo sapiens, HepG2; HepG-2, 72 h, MTT; mean ± SEM
Description: (§2) Anticancer effect of the above-mentioned compounds was evaluated using four human cancer cell lines. Colon cancer cells (Caco-2), myeloid leukaemia cell line (NFS-60), liver cancer cell line (HepG-2) and prostate cancer cell line (PC-3) using MTT method was used for assaying cell viability[26] (Supplementary Page S55).
(§3) All final compounds were evaluated against four human cancer cell lines namely; liver cancer (HepG2) (ATCC® HB-8065™), colon cancer (Caco-2) (ATCC® HTB-37™), leukaemia cancer (NFS-60) (ATCC® CRL-1838™), and prostate cancer (PC-3) (ATCC® CRL-1435™) using doxorubicin (Dox) as the reference drug being widely used in tumour management utilising microculture MTT assay, declared by Mosmann[26] (Table 1 in Supplementary Material, Figures 5–8). […]
(§4) MTT method was used for assaying cell viability 25. Twenty microliters of 5 mg/ml MTT (Sigma, USA) was added to each well and the plate was incubated at 37 °C for 3 h. Then MTT solution was removed, 100 µl DMSO was used and the absorbance of each well was measured with a microplate reader ( BMG LabTech, Germany) at 570 nm. The effective concentration (IC 50) and safe dose (EC100) values of the tested compounds that cause 50% and 100% cell viability were estimated by the Graphpad Instat software.
(§5) Determination of the anticancer activity
(§6) Anticancer effect of the above-mentioned compounds was evaluated using four human cancer cell lines. Colon cancer cells (Caco-2) were maintained in DMEM (Lonza, USA) containing 10% FBS while myeloid leukemia cell line (NFS-60), liver cancer cell line (HepG-2) and prostate cancer cell line (PC-3) were cultured in RPMI-1640 (Lonza, USA) supplemented with 10% FBS. All cancer cells (5x10^3 cells/well) were seeded in sterile 96-well plates. After 24h, serial concentrations of the tested compounds and Dox were incubated with four cancer cell lines for 72 h at 37 °C in 5% CO2 incubator. MTT method was done as described above. The Graphpad Instat software was used for calculating the half maximal inhibitory concentration (IC50) values. Furthermore, phase contrast inverted microscope with a digital camera (Olympus, Japan) was used for investigating […]
(§7) safest anticancer compounds. […]

[3] = test system: myeloid leukaemia cell line (NFS-60); assay: MTT anticancer activity, NFS-60; assay type: cell-based; settings: NFS-60, 72 h, MTT; mean ± SEM
Description: as §2, §3, §4, §5, §6, §7

[4] = test system: prostate cancer cell line (PC-3); assay: MTT anticancer activity, PC-3; assay type: cell-based, human; settings: Homo sapiens, 72 h, PC-3, 72 h, mean ± SEM
Description: as §2, §3, §4, §5, §6, §7

[5] = test system: Colon cancer cells (Caco-2); assay: MTT anticancer activity, Caco-2; assay type: cell-based, human; settings: for IC50: Homo sapiens, Caco-2, 72 h, MTT, mean ± SEM; for Caco-2 SI: selectivity index, Wi-38 versus Caco-2
Description: as §2
All final compounds were evaluated against four human cancer cell lines namely; liver cancer (HepG2) (ATCC® HB-8065™), colon cancer (Caco-2) (ATCC® HTB-37™), leukaemia cancer (NFS-60) (ATCC® CRL-1838™), and prostate cancer (PC-3) (ATCC® CRL-1435™) using doxorubicin (Dox) as the reference drug being widely used in tumour management utilising microculture MTT assay, declared by Mosmann[26] (Table 1 in Supplementary Material, Figures 5–8).
as §1
Firstly, Wi-38 cell line was subcultured in DMEM medium-contained 10% fetal bovine serum (FBS), then, seeded as 5x10^3 cells per well in 96-well cell culture plate and incubated at 37 °C in 5% CO 2 incubator. Serial concentrations of these compounds and doxorubicin (Dox) were incubat ed with Wi-38 cells for 72 h after 24 h for cell attachment. MTT method was used for assaying cell viability 25. Twenty microliters of 5 mg/ml MTT (Sigma, USA) was added to each well and the plate was incubated at 37 °C for 3 h. Then MTT solution was removed, 100 µl DMSO was used and the absorbance of each well was measured with a microplate reader ( BMG LabTech, Germany) at 570 nm. The effective concentration (IC 50) and safe dose (EC100) values of the tested compounds that cause 50% and 100% cell viability were estimated by the Graphpad Instat software.
as §5, §6, §7

SMILES	EC50 [1] [nM]	Wi-38 EC100 [1] [µM]	IC50 [2] [nM]	IC50 [3] [nM]	IC50 [4] [nM]	IC50 [5] [nM]	Caco-2 SI [5]	melting point [°C]
N#Cc1c(-c2cc3ccccc3nc2N2CCCCC2)cc(-c2cccc(O)c2)[nH]c1=O [5d, 6-(3-Hydroxyphenyl)-2-oxo-4-(2-(piperidin-1-yl)quinoline-3-yl)-1,2-dihydropyridine-3-carbonitrile]	29.9 ± 0.1	0.0239 ± 0.0003	89.7 ± 13	71.3 ± 3	53.4 ± 4	38.6 ± 1	0.775	244 to 246
N#Cc1c(-c2cc3ccccc3nc2N2CCOCC2)cc(-c2cccc(O)c2)nc1OCC(=O)Nc1ccccc1 [11a, 2-((3-Cyano-6-(3-hydroxyphenyl)-4-(2-morpholin-4-yl-quinolin-3-yl)pyridin-2-yl)oxy)-N-phenylacetamide]	144 ± 1	0.0906 ± 0.012	336 ± 22	126 ± 6	158 ± 26	158 ± 2	0.911	243 to 245
N#Cc1c(-c2cc3cc(Cl)ccc3nc2N2CCOCC2)cc(-c2cccc(O)c2)nc1S [6b, 4-(6-Chloro-2-morpholin-4-yl-quinolin-3-yl)-6-(3-hydroxyphenyl)-2-mercaptopyridine-3-carbonitrile]	138 ± 2	0.0493 ± 0.001	46.6 ± 1	204 ± 6	119 ± 14	55.2 ± 3	2.500	260 to 261
N#Cc1c(-c2cc3cc(Cl)ccc3[nH]c2=O)cc(-c2cccc(O)c2)nc1S [14b, 4-(6-Chloro-2-oxo-1,2-dihydroquinolin-3-yl)-6-(3-hydroxyphenyl)-2-mercaptopyridine-3-carbonitrile]	196 ± 12	0.153 ± 0.005	125 ± 2	135 ± 3	140 ± 4	146 ± 19	1.342	227 to 230
COc1ccc(NC(=O)COc2nc(-c3cccc(O)c3)cc(-c3cc4cc(OC)ccc4nc3N3CCOCC3)c2C#N)cc1 [11i, 2-((3-Cyano-6-(3-hydroxyphenyl)-4-(6-methoxy-2-morpholin-4-yl-quinolin-3-yl)pyridin-2-yl)oxy)-N-(4-methoxyphenyl)acetamide]	258 ± 31	0.148 ± 0.0001	48.6	523 ± 40	63.4 ± 2	34.7 ± 3	7.435	> 300
N#Cc1c(-c2cc3ccccc3nc2N2CCOCC2)cc(-c2cccc(O)c2)nc1OCC(=O)O [9a, 2-((3-Cyano-6-(3-hydroxyphenyl)-4-(2-morpholin-4-yl-quinolin-3-yl)pyridin-2-yl)oxy)acetic acid]	159 ± 4	0.0254 ± 0.002	78.2 ± 2	92.3 ± 0.1	84.7 ± 3	73.9 ± 0.1	2.152	179 to 180
CC(=O)Oc1cccc(-c2cc(-c3cc4cc(Cl)ccc4nc3N3CCOCC3)c(C#N)c(=O)[nH]2)c1 [7b, 3-(4-(6-Chloro-2-morpholin-4-yl-quinolin-3-yl)-5-cyano-6-oxo-1,6-dihydropyridin-2-yl)phenyl acetate]	140 ± 9	0.110 ± 0.002	101.6 ± 1	107 ± 1	135 ± 2	119 ± 16	1.176	189 to 190
COc1ccc2nc(N3CCOCC3)c(-c3cc(-c4cccc(O)c4)nc(S)c3C#N)cc2c1 [6c, 6-(3-Hydroxyphenyl)-4-(6-methoxy-2-morpholin-4-yl-quinolin-3-yl)-2-mercaptopyridine-3-carbonitrile]	376 ± 1	0.177 ± 0.011	84.8 ± 2	145 ± 15	100.8 ± 0.1	99.9 ± 3	3.764	> 300
COc1ccc2nc(N3CCOCC3)c(-c3cc(-c4cccc(O)c4)nc(OCC(=O)O)c3C#N)cc2c1 [9c, 2-((3-Cyano-6-(3-hydroxyphenyl)-4-(6-methoxy-2-morpholin-4-yl-quinolin-3-yl)pyridin-2-yl)oxy)acetic acid]	276 ± 2	0.0754 ± 0.003	86.7 ± 3	96.1 ± 2	46.2 ± 2	52.6 ± 0.1	5.247	274 to 275
N#Cc1c(-c2cc3ccccc3nc2N2CCCCC2)cc(-c2cccc(O)c2)nc1S [6d, 6-(3-Hydroxyphenyl)-4-(2-(piperidin-1-yl)quinolin-3-yl)-2-mercaptopyridine-3-carbonitrile]	759 ± 25	0.212 ± 0.009	87.6 ± 2	217 ± 22	135 ± 11	70.8 ± 3	10.720	> 300
